Assay results published in patent US11787796B2, “Plasma Kallikrein inhibitors and uses thereof” (Takeda Pharmaceutical Company Limited, priority 2019, dated 2023).
pEC50: −log10 of the molar value.

Molecular target: human activated kallikrein enzyme (Homo sapiens (Human), UniProt P03952)
Test: Plasma kallikrein inhibition assay with fluorogenic peptide substrate, 500 pM activated kallikrein format
Assay type: biochemical
Conditions: 500 pM activated kallikrein; 300 uM Pro-Phe-Arg-7-amido-4-methylcoumarin substrate; 30 min preincubation, 10 min reaction at RT; read-out: Primary Dose Response Assay: Average EC50
Summary of the method: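 Pro-Phe-Arg-7-amido-4-methylcoumarin substrate (300 uM) started reactions after a 30 min RT enzyme–inhibitor preincubation. This format used 500 pM activated human kallikrein in Tris pH 7.5 buffer with EDTA, NaCl, PEG-400 and Triton X-100. AMC fluorescence (380/460 nm) was measured after 10 min at RT.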

Chain of human activated kallikrein enzyme (P03952 391-638): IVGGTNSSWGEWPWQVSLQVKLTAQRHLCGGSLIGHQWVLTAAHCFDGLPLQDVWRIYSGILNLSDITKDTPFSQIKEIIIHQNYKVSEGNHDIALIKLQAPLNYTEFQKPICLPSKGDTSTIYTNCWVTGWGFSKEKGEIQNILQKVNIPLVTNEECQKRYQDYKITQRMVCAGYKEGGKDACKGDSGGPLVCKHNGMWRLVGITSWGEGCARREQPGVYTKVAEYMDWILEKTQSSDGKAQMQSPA
Chain of human activated kallikrein enzyme (P03952 20-390 partner): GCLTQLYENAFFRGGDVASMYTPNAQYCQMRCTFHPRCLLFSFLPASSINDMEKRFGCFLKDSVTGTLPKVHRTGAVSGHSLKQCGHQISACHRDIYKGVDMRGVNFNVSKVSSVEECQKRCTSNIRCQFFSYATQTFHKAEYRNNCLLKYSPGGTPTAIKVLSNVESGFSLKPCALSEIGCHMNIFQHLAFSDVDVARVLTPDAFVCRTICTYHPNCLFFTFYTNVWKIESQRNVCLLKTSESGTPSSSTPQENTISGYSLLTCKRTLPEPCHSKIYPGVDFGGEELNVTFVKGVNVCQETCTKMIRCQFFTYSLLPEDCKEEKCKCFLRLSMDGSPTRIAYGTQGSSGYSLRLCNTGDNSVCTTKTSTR

SMILES: CCc1ccc(-n2cnnn2)c(CNC(=O)c2cn(Cc3cn4cc(C5CC5)ccc4n3)nn2)c1F [Example I-83, 1-((6-cyclopropylimidazo[1,2-a]pyridin-2-yl)methyl)-N-(3-ethyl-2-fluoro-6-(1H-tetrazol-1-yl)benzyl)-1H-1,2,3-triazole-4-carboxamide]
- pEC50: 7.00 to 8.00

SMILES: O=C(NCc1ccc2sccc2c1)c1cn(Cc2cn3cc(C4CC4)ccc3n2)nn1 [Example I-84, N-(benzo[b]thiophen-5-ylmethyl)-1-((6-cyclopropylimidazo[1,2-a]pyridin-2-yl)methyl)-1H-1,2,3-triazole-4-carboxamide]
- pEC50: 5.70 to 7.00

SMILES: CCOC(=O)C(C)(C)Cc1cc(C2CC2)cn2cc(Cn3cc(C(=O)NCc4c(-n5cnnn5)ccc(OC)c4F)nn3)nc12 [Example I-85, ethyl 3-(6-cyclopropyl-2-((4-((2-fluoro-3-methoxy-6-(1H-tetrazol-1-yl)benzyl)carbamoyl)-1H-1,2,3-triazol-1-yl)methyl)imidazo[1,2-a]pyridin-8-yl)-2,2-dimethylpropanoate]
- pEC50: ≥ 9.00

SMILES: COc1ccc(-c2ccnnc2)c(CNC(=O)c2cn(Cc3cn4cc(C5CC5)ccc4n3)nn2)c1F [Example I-86, 1-((6-cyclopropylimidazo[1,2-a]pyridin-2-yl)methyl)-N-(2-fluoro-3-methoxy-6-(pyridazin-4-yl)benzyl)-1H-1,2,3-triazole-4-carboxamide]
- pEC50: 8.00 to 9.00

SMILES: COC(=O)c1ccc(-c2ccc(OC)c(F)c2CNC(=O)c2cn(Cc3cn4cc(C5CC5)ccc4n3)nn2)cc1 [Example I-87, Methyl 2′-((1-((6-cyclopropylimidazo[1,2-a]pyridin-2-yl)methyl)-1H-1,2,3-triazole-4-carboxamido)methyl)-3′-fluoro-4′-methoxy-[1,1′-biphenyl]-4-carboxylate]
- pEC50: 7.00 to 8.00

SMILES: COc1ccc(-c2ccc(C(=O)O)cc2)c(CNC(=O)c2cn(Cc3cn4cc(C5CC5)ccc4n3)nn2)c1F [Example I-88, 2′-((1-((6-cyclopropylimidazo[1,2-a]pyridin-2-yl)methyl)-1H-1,2,3-triazole-4-carboxamido)methyl)-3′-fluoro-4′-methoxy-[1,1′-biphenyl]-4-carboxylic acid]
- pEC50: 8.00 to 9.00

SMILES: CCOC(=O)CCc1cc(C2CC2)cn2cc(Cn3cc(C(=O)NCc4c(-n5cnnn5)ccc(OC)c4F)nn3)nc12 [Example I-89, ethyl 3-(6-cyclopropyl-2-((4-((2-fluoro-3-methoxy-6-(1H-tetrazol-1-yl)benzyl)carbamoyl)-1H-1,2,3-triazol-1-yl)methyl)imidazo[1,2-a]pyridin-8-yl)propanoate]
- pEC50: ≥ 9.00

SMILES: O=C(NCc1c(-n2cnnn2)ccc(Br)c1F)c1cn(Cc2cn3cc(C4CC4)ccc3n2)nn1 [Example I-90, N-(3-bromo-2-fluoro-6-(1H-tetrazol-1-yl)benzyl)-1-((6-cyclopropylimidazo[1,2-a]pyridin-2-yl)methyl)-1H-1,2,3-triazole-4-carboxamide]
- pEC50: ≥ 9.00

SMILES: COc1ccc(-n2cnnn2)c(CNC(=O)c2cn(Cc3cn4cc(C5CC5)cc(C5(F)COC5)c4n3)nn2)c1F [Example I-91, 1-((6-cyclopropyl-8-(3-fluorooxetan-3-yl)imidazo[1,2-a]pyridin-2-yl)methyl)-N-(2-fluoro-3-methoxy-6-(1H-tetrazol-1-yl)benzyl)-1H-1,2,3-triazole-4-carboxamide]
- pEC50: ≥ 9.00

SMILES: COc1ccc(-n2cnnn2)c(CNC(=O)c2cn(Cc3cn4cc(C5CC5)cc(CCC(=O)O)c4n3)nn2)c1F [Example I-92, 3-(6-cyclopropyl-2-((4-((2-fluoro-3-methoxy-6-(1H-tetrazol-1-yl)benzyl)carbamoyl)-1H-1,2,3-triazol-1-yl)methyl)imidazo[1,2-a]pyridin-8-yl)propanoic acid]
- pEC50: ≥ 9.00

SMILES: COc1ccc(-n2cnnn2)c(CNC(=O)c2cn(Cc3cn4cc(C5CC5)cc(C(F)(F)F)c4n3)nn2)c1F [Example I-93, 1-((6-cyclopropyl-8-(trifluoromethyl)imidazo[1,2-a]pyridin-2-yl)methyl)-N-(2-fluoro-3-methoxy-6-(1H-tetrazol-1-yl)benzyl)-1H-1,2,3-triazole-4-carboxamide]
- pEC50: ≥ 9.00

SMILES: COc1ccc(-n2cnnn2)c(CNC(=O)c2nnc(Cc3cn4cc(C5CC5)ccc4n3)o2)c1F [Example I-94, 5-((6-cyclopropylimidazo[1,2-a]pyridin-2-yl)methyl)-N-(2-fluoro-3-methoxy-6-(1H-tetrazol-1-yl)benzyl)-1,3,4-oxadiazole-2-carboxamide]
- pEC50: ≥ 9.00

SMILES: COc1ccc(-n2cccn2)c(CNC(=O)c2cn(Cc3cn4cc(C5CC5)ccc4n3)nn2)c1F [Example I-95, 1-((6-cyclopropylimidazo[1,2-a]pyridin-2-yl)methyl)-N-(2-fluoro-3-methoxy-6-(1H-pyrazol-1-yl)benzyl)-1H-1,2,3-triazole-4-carboxamide]
- pEC50: 8.00 to 9.00

SMILES: COc1ccc(-n2cnnc2)c(CNC(=O)c2cn(Cc3cn4cc(C5CC5)ccc4n3)nn2)c1F [Example I-96, 1-((6-cyclopropylimidazo[1,2-a]pyridin-2-yl)methyl)-N-(2-fluoro-3-methoxy-6-(4H-1,2,4-triazol-4-yl)benzyl)-1H-1,2,3-triazole-4-carboxamide]
- pEC50: 8.00 to 9.00

SMILES: COc1ccc(-c2nnco2)c(CNC(=O)c2cn(Cc3cn4cc(C5CC5)ccc4n3)nn2)c1F [Example I-97, 1-((6-cyclopropylimidazo[1,2-a]pyridin-2-yl)methyl)-N-(2-fluoro-3-methoxy-6-(1,3,4-oxadiazol-2-yl)benzyl)-1H-1,2,3-triazole-4-carboxamide]
- pEC50: 7.00 to 8.00

SMILES: O=C(NCc1c(-n2cnnn2)ccc(OC(F)(F)F)c1F)c1cn(Cc2cn3cc(C4CC4)ccc3n2)nn1 [Example I-98, 1-((6-cyclopropylimidazo[1,2-a]pyridin-2-yl)methyl)-N-(2-fluoro-6-(1H-tetrazol-1-yl)-3-(trifluoromethoxy)benzyl)-1H-1,2,3-triazole-4-carboxamide]
- pEC50: 5.70 to 7.00

SMILES: COc1ccc(-n2cnnn2)c(CNC(=O)c2cn(Cc3cn4cc(C5CC5)cc(F)c4n3)nn2)c1F [Example I-99, 1-((6-cyclopropyl-8-fluoroimidazo[1,2-a]pyridin-2-yl)methyl)-N-(2-fluoro-3-methoxy-6-(1H-tetrazol-1-yl)benzyl)-1H-1,2,3-triazole-4-carboxamide]
- pEC50: ≥ 9.00

SMILES: COc1cccc(CNC(=O)c2cn(Cc3cn4cc(C5CC5)ccc4n3)nn2)c1F [Example I-100, 1-((6-cyclopropylimidazo[1,2-a]pyridin-2-yl)methyl)-N-(2-fluoro-3-methoxybenzyl)-1H-1,2,3-triazole-4-carboxamide]
- pEC50: 5.70 to 7.00

SMILES: COc1ccc(-c2ccncc2)c(CNC(=O)c2cn(Cc3cn4cc(C5CC5)ccc4n3)nn2)c1F [Example I-101, 1-((6-cyclopropylimidazo[1,2-a]pyridin-2-yl)methyl)-N-(2-fluoro-3-methoxy-6-(pyridin-4-yl)benzyl)-1H-1,2,3-triazole-4-carboxamide]
- pEC50: 8.00 to 9.00

SMILES: COc1ccc(Br)c(CNC(=O)c2cn(Cc3cn4cc(C5CC5)ccc4n3)nn2)c1F [Example I-102, N-(6-bromo-2-fluoro-3-methoxybenzyl)-1-((6-cyclopropylimidazo[1,2-a]pyridin-2-yl)methyl)-1H-1,2,3-triazole-4-carboxamide]
- pEC50: 7.00 to 8.00

SMILES: Cc1cc(C(=N)N)cc(C)c1CNC(=O)c1cnn(Cc2cn3cc(C4CC4)ccc3n2)c1 [Example I-103, N-(4-carbamimidoyl-2,6-dimethylbenzyl)-1-((6-cyclopropylimidazo[1,2-a]pyridin-2-yl)methyl)-1H-pyrazole-4-carboxamide]
- pEC50: ≥ 9.00

SMILES: COc1ccc(-n2ccnc2)c(CNC(=O)c2cn(Cc3cn4cc(C5CC5)ccc4n3)nn2)c1F [Example I-104, 1-((6-cyclopropylimidazo[1,2-a]pyridin-2-yl)methyl)-N-(2-fluoro-6-(1H-imidazol-1-yl)-3-methoxybenzyl)-1H-1,2,3-triazole-4-carboxamide]
- pEC50: 8.00 to 9.00

SMILES: COc1ccc(-n2cnnn2)c(CNC(=O)c2cn(Cc3cn4cc(C5CC5)ccc4n3)nn2)c1F [Example I-105, 1-((6-cyclopropylimidazo[1,2-a]pyridin-2-yl)methyl)-N-(2-fluoro-3-methoxy-6-(1H-tetrazol-1-yl)benzyl)-1H-1,2,3-triazole-4-carboxamide]
- pEC50: ≥ 9.00

SMILES: O=C(NCc1c(-n2cnnn2)ccc(Cl)c1F)c1cn(Cc2cn3cc(C4CC4)ccc3n2)nn1 [Example I-106, N-(3-chloro-2-fluoro-6-(1H-tetrazol-1-yl)benzyl)-1-((6-cyclopropylimidazo[1,2-a]pyridin-2-yl)methyl)-1H-1,2,3-triazole-4-carboxamide]
- pEC50: ≥ 9.00

SMILES: COc1ccc(C#N)c(CNC(=O)c2cn(Cc3cn4cc(C5CC5)cc(CCC(=O)O)c4n3)nn2)c1F [Example I-107, 3-(2-((4-((6-cyano-2-fluor-3-methoxybenzyl)carbamoyl)-1H-1,2,3-triazol-1-yl)methyl)-6-cyclopropylimidazo[1,2-a]pyridin-8-yl)propanoic Acid]
- pEC50: ≥ 9.00

SMILES: CCOC(=O)CCc1cc(C2CC2)cn2cc(Cn3cc(C(=O)NCc4c(C#N)ccc(OC)c4F)nn3)nc12 [Example I-108, ethyl 3-(2-((4-((6-cyano-2-fluoro-3-methoxybenzyl)carbamoyl)-1H-1,2,3-triazol-1-yl)methyl)-6-cyclopropylimidazo[1,2-a]pyridin-8-yl)propanoate]
- pEC50: 8.00 to 9.00

SMILES: O=C(O)CCc1cc(C2CC2)cn2cc(Cn3cc(C(=O)NCc4c(-n5cnnn5)ccc(Cl)c4F)nn3)nc12 [Example I-109, 3-(2-((4-((3-choro-2-fluoro-6-(1H-tetrazol-1-yl)benzyl)carbamoyl)-1H-1,2,3-triazol-1-yl)methyl)-6-cyclopropylimidazo[1,2-a]pyridin-8-yl)propanoic Acid]
- pEC50: ≥ 9.00

SMILES: N#CNc1ccc(Cl)c(F)c1CNC(=O)c1cn(Cc2cn3cc(C4CC4)cc(CCC(=O)O)c3n2)nn1 [Example I-110, 3-(2-((4-((3-chloro-6-cyanamido-2-fluorobenzyl)carbamoyl)-1H-1,2,3-triazol-1-yl)methyl)-6-cyclopropylimidazo[1,2-a]pyridin-8-yl)propanoic Acid]
- pEC50: 8.00 to 9.00
